{"source": "patent US10604741B2", "about": "“Compositions and methods for enhancing virus replication” (TURNSTONE LIMITED PARTNERSHIP, priority 2013, dated 2020)", "key": {"VSVΔ51 in 786-0 cells [1]": {"test_system": "VSVΔ51 in 786-0 cells", "format": "cell-based, human"}, "VSVΔ51 in OVCAR8 cells": {"test_system": "VSVΔ51 in OVCAR8 cells", "format": "cell-based, human", "conditions": "24 hours"}, "VSVΔ51 in WI38 cells": {"test_system": "VSVΔ51 in WI38 cells", "format": "cell-based, human", "conditions": "24 hours"}, "VSVΔ51 in CT26 cells": {"test_system": "VSVΔ51 in CT26 cells", "format": "cell-based, mouse", "conditions": "24 hours"}, "VSVΔ51 in GM38 cells": {"test_system": "VSVΔ51 in GM38 cells", "format": "cell-based, human", "conditions": "24 hours"}, "VSVΔ51 in 786-0 cells [2]": {"test_system": "VSVΔ51 in 786-0 cells", "format": "cell-based, human", "conditions": "24 hours"}, "VSV in 786-0 cells": {"test_system": "VSV in 786-0 cells", "format": "cell-based, human", "conditions": "24 hours"}, "MG1 in 786-0 cells": {"test_system": "MG1 in 786-0 cells", "format": "cell-based, human", "conditions": "24 hours"}, "JX594-GFP in 786-0 cells [3]": {"test_system": "JX594-GFP in 786-0 cells", "format": "cell-based, human", "conditions": "48 hours"}, "Reovirus in 786-0 cells": {"test_system": "Reovirus in 786-0 cells", "format": "cell-based, human", "conditions": "48 hours"}, "HSV-1 in 786-0 cells": {"test_system": "HSV-1 in 786-0 cells", "format": "cell-based, human", "conditions": "48 hours"}, "VSVΔ51 in 786-0 tumors [4]": {"test_system": "VSVΔ51 in 786-0 tumors", "format": "cell-based, SCID mice"}, "VSVΔ51 in MiaPaca tumors [5]": {"test_system": "VSVΔ51 in MiaPaca tumors", "format": "cell-based, SCID mice"}, "VSVΔ51 in MiaPaca tumors [6]": {"test_system": "VSVΔ51 in MiaPaca tumors", "format": "in vivo, SCID mice", "conditions": "72 hours"}, "VSVΔ51 in OVCAR8 tumors": {"test_system": "VSVΔ51 in OVCAR8 tumors", "design": "species or system SCID mice", "conditions": "mouse, in vivo, iv"}, "VSVΔ51 in 786-0 tumors [7]": {"test_system": "VSVΔ51 in 786-0 tumors", "design": "species or system SCID mice", "conditions": "mouse, in vivo, iv"}, "[8]": {"test_system": "human H1N1 Influenza A strain FM/1/47 in MRC5 cells", "test": "Influenza A titers in MRC5 cells treated with FGF2, nucleoprotein ELISA", "format": "cell-based", "conditions": "FGF2 100 ng/ml, serum free media; MOI 0.05 or 0.1; FIG. 21", "method": "MRC5 cells were treated with 100 ng/ml FGF2, 100 ng/ml leptin, or mock treated, in serum free media.\n48 hours later, cells were infected with the human H1N1 Influenza A strain FM/1/47 at MOI 0.05 or 0.1, as indicated, in the presence of 1 μg/ml TPCK trypsin. 48 h (MOI 0.1) or 72 h (MOI 0.05) later, supernatants from triplicate wells were collected and pooled. Viral titers were obtained by ELISA for Influenza A nucleoprotein. The resulting titers are illustrated in FIG. 21."}, "[9]": {"test_system": "Measles virus (Edmonston strain) in WI38 cells", "test": "Measles virus titers in WI38 cells treated with FGF2, plaque assay", "format": "cell-based, human", "conditions": "FGF2 100 ng/ml, serum free media; MOI 0.1; 48 hours; FIG. 22", "method": "WI38 cells were treated with 100 ng/ml FGF2, or mock treated, in serum free media.\n24 hours later, cells were infected with Measles virus (Edmonston strain) at an MOI 0.1. 48 hours later, supernatants were collected and virus titration was performed by plaque assay in Vero cells. The resulting titers are illustrated in FIG. 22."}, "VSVΔ51 in MC38 cells": {"test_system": "VSVΔ51 in MC38 cells", "format": "cell-based, mouse", "conditions": "48 hours"}, "[10]": {"test": "Enhancement of virus replication, test not described", "conditions": "no test details given"}, "JX594-GFP in 786-0 cells [11]": {"test_system": "JX594-GFP in 786-0 cells", "format": "cell-based, human"}}, "note": "Where two headings read alike, the source gives them in different places.", "data": [{"molecule": "FGF2: recombinant human FGF2 protein; amino acid sequence shown in SEQ ID NO: 9", "values": [{"measurement": "rate of production of VSVΔ51 compared to untreated 786-0 cells", "setting": "VSVΔ51 in 786-0 cells [1]", "result": "increased"}, {"measurement": "FGF2 concentration at which enhanced VSVΔ51 replication is seen", "setting": "VSVΔ51 in 786-0 cells [1]; 24 hours", "result": "≤ 20", "unit": "ng/mL"}, {"measurement": "total PFU/mL, fold higher than untreated or FGF1-treated cells", "setting": "VSVΔ51 in 786-0 cells [1]; 24 hours", "result": "at least 15 fold"}, {"measurement": "virus replication vs untreated cells", "setting": "VSVΔ51 in 786-0 cells [1]; 24 hours", "result": "enhanced virus replication"}, {"measurement": "pfu/ml in cell associated supernatants", "setting": "VSVΔ51 in 786-0 cells [1]; after 6 hours", "result": "about 1E2 pfu/ml"}, {"measurement": "plaque forming units/mL in cell associated supernatants", "setting": "VSVΔ51 in 786-0 cells [1]; after 48 hours", "result": "about 5E6 pfu/mL"}, {"measurement": "total PFU/mL, fold higher than untreated or FGF1-treated cells", "setting": "VSVΔ51 in OVCAR8 cells", "result": "at least 15 fold"}, {"measurement": "total PFU/mL, fold higher than untreated or FGF1-treated cells", "setting": "VSVΔ51 in WI38 cells", "result": "at least 15 fold"}, {"measurement": "total PFU/mL, fold higher than untreated or FGF1-treated cells", "setting": "VSVΔ51 in CT26 cells", "result": "at least 15 fold"}, {"measurement": "effect on virus replication", "setting": "VSVΔ51 in GM38 cells", "result": "did not significantly affect virus replication"}, {"measurement": "virus titers, fold higher compared to control (untreated and FGF1-treated) cells", "setting": "VSVΔ51 in 786-0 cells [2]", "result": 10, "unit": "fold"}, {"measurement": "virus replication vs untreated cells", "setting": "VSV in 786-0 cells", "result": "enhanced virus replication"}, {"measurement": "virus replication vs untreated cells", "setting": "MG1 in 786-0 cells", "result": "enhanced virus replication"}, {"measurement": "virus replication vs untreated cells", "setting": "JX594-GFP in 786-0 cells [3]", "result": "enhanced virus replication"}, {"measurement": "virus replication vs untreated cells", "setting": "Reovirus in 786-0 cells", "result": "enhanced virus replication"}, {"measurement": "virus replication vs untreated cells", "setting": "HSV-1 in 786-0 cells", "result": "enhanced virus replication"}, {"measurement": "ex-vivo virus infection and GFP expression, fluorescent pictures", "setting": "VSVΔ51 in 786-0 tumors [4]", "result": "increased ex-vivo virus infection and transgene protein expression (GFP)"}, {"measurement": "ex vivo virus production (virus titers)", "setting": "VSVΔ51 in 786-0 tumors [4]; 48 hours", "result": "enhancement of ex vivo virus production"}, {"measurement": "ex-vivo virus infection and GFP expression, fluorescent pictures", "setting": "VSVΔ51 in MiaPaca tumors [5]", "result": "increased ex-vivo virus infection and transgene protein expression (GFP)"}, {"measurement": "ex vivo virus production (virus titers)", "setting": "VSVΔ51 in MiaPaca tumors [5]; 48 hours", "result": "enhancement of ex vivo virus production"}, {"measurement": "VSVΔ51 titers in tumors", "setting": "VSVΔ51 in MiaPaca tumors [6]", "result": "enhanced virus replication"}, {"measurement": "VSVΔ51 titers in tumors", "setting": "VSVΔ51 in OVCAR8 tumors", "result": "enhanced virus replication"}, {"measurement": "VSVΔ51 titers in tumors", "setting": "VSVΔ51 in 786-0 tumors [7]", "result": "enhanced virus replication"}, {"measurement": "influenza viral replication (viral titers)", "setting": "[8]", "result": "Enhanced Viral Replication"}, {"measurement": "measles viral replication (virus titers)", "setting": "[9]", "result": "Enhanced Viral Replication"}, {"measurement": "Virus titre", "setting": "VSVΔ51 in MC38 cells", "result": "7.73e6 ± 9.8e5", "unit": "pfu/mL"}]}, {"molecule": "SEQ ID NO: 14: human recombinant FGF2 protein (Accession: # P09038)", "values": [{"measurement": "virus replication", "setting": "[10]", "result": "enhance virus replication"}]}, {"molecule": "mFGF2: recombinant murine FGF2 protein; amino acid sequence shown in SEQ ID NO: 11 (protein, recombinant mouse protein) MAASGITSLPALPEDGGAAFPPGHFKDPKRLYCKNGGFFLRIHPDGRVDGVREKSDPHVKLQLQAEERGVVSIKGVCANRYLAMKEDGRLLASKCVTEECFFFERLESNNYNTYRSRKYSSWYVALKRTGQYKLGSKTGPGQKAILFLPMSAKS", "values": [{"measurement": "Average of pixel intensity", "setting": "JX594-GFP in 786-0 cells [11]", "result": 24.90}, {"measurement": "Relative pixel intensity increase", "setting": "JX594-GFP in 786-0 cells [11]", "result": 4.37}, {"measurement": "Average of pixel intensity", "setting": "JX594-GFP in 786-0 cells [11]; after 48 hours", "result": 24.90}, {"measurement": "Relative pixel intensity increase", "setting": "JX594-GFP in 786-0 cells [11]; after 48 hours", "result": 4.37}, {"measurement": "Virus titre", "setting": "VSVΔ51 in MC38 cells", "result": "8.20e6 ± 1.1e6", "unit": "pfu/mL"}]}]}
